Entries after “also recorded” stand apart in the source; their conditions may differ. Where two headings read alike, the source gives them in different places.
Experiments:
[1] = design: method as in Chong et al., 2020; details: rats; ref Chong et al., 2020; cited from earlier work
[2] = patients with solid tumors; ref Gschwind et al. (2005), Sparano et al. (2009), Di Gion et al. (2011), Scheffler et al. (2011); read-out: I (Cmax of patients with solid tumors); cited from earlier work
[3] = tested on: CYP2J2 and CYP3A4; details: predicted increase in rivaroxaban exposure from CYP2J2 and CYP3A4 inhibition
Description: Kinetic constants were included in the mechanistic static model to explore reversible inhibition and the TDI. […] In the present study, this model was designed to explore the contributions of enzyme inhibition in the prediction of DDI risk. The area under the curve ratio (AUC ratio/AUCR) in the presence of a pharmacokinetic DDI was used as the index, as described by Eq. 2.

[4] = tested on: rivaroxaban metabolism in HLM; assay: Inhibition of rivaroxaban metabolism in HLM incubation; format: in vitro ADME; details: human, pooled human liver microsomes, probe rivaroxaban (concentration chosen from Km, 22.81 μM for HLM), HLM 0.3 mg/mL, main metabolite formation, five independent experiments, read-out: IC50 of TKI inhibition of rivaroxaban metabolism, HLM
Protocol: The formation of the main metabolite of rivaroxaban in the CYP inhibition assays was quantitatively determined using HPLC. The mobile phase consisted of 60% methanol (A pump) and 40% pure water with 0.2% formic acid (B pump) with isocratic elution.
The inhibitory effect of the TKIs on the metabolism of rivaroxaban in recombined P450 isoforms and HLM incubations was compared by quantifiably detecting the production of the major metabolite using HPLC. The concentrations of HLM, CYP2J2, and CYP3A4 were 0.3, 0.4, and 0.6 mg mL^−1, respectively. […] Briefly, after 5-min preincubation of potential inhibitors with isoforms, NADPH was added to initiate the reaction. The reaction mixture was incubated at 37°C for 60 min, and ice acetonitrile was used for terminating the reaction. The ratio of major metabolite production of rivaroxaban in the TKI incubation group to that obtained in the control group represents the inhibitory activity.
To explore the inhibitory effects of the three TKIs on rivaroxaban metabolism, three concentrations of TKIs (1, 10, and 100 μM) were used to perform the in vitro enzyme incubations. The ratio of the rivaroxaban main metabolite formation in the incubation with the TKIs to that without inhibitors represented the inhibitory activity.
The IC50 values were obtained by nonlinear fitting of the TKI concentration and the remaining enzyme activity.

[5] = design: method as in Zheng et al., 2019; details: ref Zheng et al., 2019; cited from earlier work
[6] = Rivaroxaban pharmacokinetics in rats, oral administration with or without TKIs; format: in vivo, Wistar rats
Protocol: (§1) The LC-MS/MS method was used to quantitatively determine rivaroxaban for cell and animal experiments. LC-MS/MS analysis was performed using an API 3200 triple-quadrupole mass spectrometer (Applied Biosystems, Concord, Ontario, Canada) and an Agilent LC system Agilent HP1200 (Agilent Technology Inc. CA, United States). The column was a Hypersil ODS-BP column (150 mm × 2.1 mm, 5 μm; Dalian Elite Analytical Instruments Co. Ltd. China). […] The flow rate of the mobile phase was 0.4 ml/min. The mobile phase contained acetonitrile and water with 0.2% (v/v) formic acid at 65:35 (v/v) for rivaroxaban in cell experiments. The determination of rivaroxaban in the blood was achieved by gradient elution methods with a mobile phase of acetonitrile (A) and pure water with 10 mM ammonium acetate (B).
(§2) To further investigate the DDI risk between rivaroxaban and the TKIs, the pharmacokinetic parameters were measured in Wistar rats (male, 160–200 g). The experiments were reviewed and approved by the Experimental Animal Centre of Dalian Medical University. […] All rats had free access to food and water and were fed adaptively for 7 days. […] Thirty-six rats were divided into six groups randomly. […] After centrifugation, the plasma proteins were precipitated using acetonitrile, followed by vortexing and centrifugation.
(§3) All pharmacokinetic parameters in the present study were analyzed using the Drug and Statistics software (DAS 2.0, Windows). In the bidirectional experiments, the apparent permeability values (Papp), efflux ratio (ER), and net flux ratio were calculated by Eqs. […] The transport of rivaroxaban was assessed to determine apparent Michaelis–Menten constants (Km,app). […] AP is transported from the apical to the basolateral side, and BL is transported from the basolateral to the apical side. Net flux ratiomax is the maximal effect, C is the concentration of rivaroxaban, and h is the Hill coefficient of the sigmoid model.

[7] = design: method as in Mueck et al., 2013; details: ref Mueck et al., 2013; cited from earlier work
[8] = target: T1, P-gp (Homo sapiens, UniProt P08183); assay: Bidirectional transport of rivaroxaban, MDR1-MDCK vs mock-MDCK
Protocol: as §1
(§4) Mock-MDCK, MDR1-MDCK, and ABCG2-MDCK cells were seeded in 24-well transwell inserts (0.33 cm^2, 0.4 μm) at a density of 2.5 × 10^5 cells/ml, and cells were allowed to culture for 3–5 days to form cell monolayers. The Millicell-ERS system was used to measure the TEER (Trans Epithelial Electric Resistance) values of the monolayers. […] Briefly, the monolayer was washed gently using 37°C HBSS (pH 7.4) and preincubated with HBSS for 10 min at 37°C. Then, various concentrations of TKIs were added to the HBSS on either the basolateral (total volume of 800 μl) or apical (total volume of 200 μl) side of the monolayers, and the cells in the transwell inserts were allowed to further incubate at 37°C for 2 h. At last, a 100-μl solution was taken from the other side for quantitative analysis by LC-MS/MS.
as §3

[9] = target: recombinant human CYP3A4 (Homo sapiens, UniProt P08684); design: method as in Zhao et al., 2022; details: ref Zhao et al., 2022, cited from earlier work
[10] = target: T2, recombinant human CYP2J2 (Homo sapiens, UniProt P51589); design: method as in Zhao et al., 2022; details: ref Zhao et al., 2022, cited from earlier work
T2 sequence (P51589 1-502): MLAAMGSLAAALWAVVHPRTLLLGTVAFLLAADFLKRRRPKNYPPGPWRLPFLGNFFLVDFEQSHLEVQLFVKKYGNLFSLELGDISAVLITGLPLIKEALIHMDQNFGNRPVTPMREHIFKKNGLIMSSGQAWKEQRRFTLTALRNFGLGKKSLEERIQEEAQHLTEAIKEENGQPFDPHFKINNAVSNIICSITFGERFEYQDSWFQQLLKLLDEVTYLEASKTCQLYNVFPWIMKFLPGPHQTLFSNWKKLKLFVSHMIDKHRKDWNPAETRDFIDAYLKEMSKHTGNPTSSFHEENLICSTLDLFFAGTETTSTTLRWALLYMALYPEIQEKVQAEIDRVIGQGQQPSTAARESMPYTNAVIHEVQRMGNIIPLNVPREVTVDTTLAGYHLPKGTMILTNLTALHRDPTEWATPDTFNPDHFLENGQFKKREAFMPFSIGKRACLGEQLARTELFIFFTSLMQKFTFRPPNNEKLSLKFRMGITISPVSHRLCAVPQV

[11] = tested on: pooled human liver microsomes (HLM); design: method as in Zhao et al., 2022; details: ref Zhao et al., 2022; read-out: Km of rivaroxaban metabolism, HLM; cited from earlier work
[12] = Rivaroxaban pharmacokinetics in rats, intravenous administration with or without imatinib; format: in vivo; details: male, Wistar, rat, plasma, 0.4 mg/kg, i.v.
Protocol: as §1, §2, §3

[13] = target: T3, BCRP (Homo sapiens, UniProt Q9UNQ0); assay: Bidirectional transport of rivaroxaban, ABCG2-MDCK vs mock-MDCK
T3 sequence (Q9UNQ0 1-655): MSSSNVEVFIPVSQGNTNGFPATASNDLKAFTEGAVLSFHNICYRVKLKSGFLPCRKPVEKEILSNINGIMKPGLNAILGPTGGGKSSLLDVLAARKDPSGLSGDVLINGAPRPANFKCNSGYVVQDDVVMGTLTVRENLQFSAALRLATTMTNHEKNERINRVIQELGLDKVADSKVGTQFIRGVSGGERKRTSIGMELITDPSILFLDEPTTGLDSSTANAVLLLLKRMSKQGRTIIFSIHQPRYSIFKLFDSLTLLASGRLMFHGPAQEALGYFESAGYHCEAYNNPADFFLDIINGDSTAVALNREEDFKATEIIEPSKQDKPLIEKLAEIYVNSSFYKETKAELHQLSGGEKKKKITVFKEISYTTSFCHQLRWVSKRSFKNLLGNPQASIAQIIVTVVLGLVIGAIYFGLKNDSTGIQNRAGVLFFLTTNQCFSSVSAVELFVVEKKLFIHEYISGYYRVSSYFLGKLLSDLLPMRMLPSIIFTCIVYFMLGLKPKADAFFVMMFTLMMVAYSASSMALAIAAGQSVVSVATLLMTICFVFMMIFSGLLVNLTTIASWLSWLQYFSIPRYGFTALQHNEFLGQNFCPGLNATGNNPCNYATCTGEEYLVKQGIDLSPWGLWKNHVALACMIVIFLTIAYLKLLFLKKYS
Protocol: as §1, §4, §3

[14] = target: T1, P-gp; details: MDR1-MDCK cells, TKI 5 μM
Protocol: Mock-MDCK and MDR1-MDCK cells were seeded in six-well plates and grown to 80% confluency.

[15] = male, Wistar, rat, plasma, po, rivaroxaban 2.1 mg/kg, n = 5

T1 sequence (P08183 whole entry): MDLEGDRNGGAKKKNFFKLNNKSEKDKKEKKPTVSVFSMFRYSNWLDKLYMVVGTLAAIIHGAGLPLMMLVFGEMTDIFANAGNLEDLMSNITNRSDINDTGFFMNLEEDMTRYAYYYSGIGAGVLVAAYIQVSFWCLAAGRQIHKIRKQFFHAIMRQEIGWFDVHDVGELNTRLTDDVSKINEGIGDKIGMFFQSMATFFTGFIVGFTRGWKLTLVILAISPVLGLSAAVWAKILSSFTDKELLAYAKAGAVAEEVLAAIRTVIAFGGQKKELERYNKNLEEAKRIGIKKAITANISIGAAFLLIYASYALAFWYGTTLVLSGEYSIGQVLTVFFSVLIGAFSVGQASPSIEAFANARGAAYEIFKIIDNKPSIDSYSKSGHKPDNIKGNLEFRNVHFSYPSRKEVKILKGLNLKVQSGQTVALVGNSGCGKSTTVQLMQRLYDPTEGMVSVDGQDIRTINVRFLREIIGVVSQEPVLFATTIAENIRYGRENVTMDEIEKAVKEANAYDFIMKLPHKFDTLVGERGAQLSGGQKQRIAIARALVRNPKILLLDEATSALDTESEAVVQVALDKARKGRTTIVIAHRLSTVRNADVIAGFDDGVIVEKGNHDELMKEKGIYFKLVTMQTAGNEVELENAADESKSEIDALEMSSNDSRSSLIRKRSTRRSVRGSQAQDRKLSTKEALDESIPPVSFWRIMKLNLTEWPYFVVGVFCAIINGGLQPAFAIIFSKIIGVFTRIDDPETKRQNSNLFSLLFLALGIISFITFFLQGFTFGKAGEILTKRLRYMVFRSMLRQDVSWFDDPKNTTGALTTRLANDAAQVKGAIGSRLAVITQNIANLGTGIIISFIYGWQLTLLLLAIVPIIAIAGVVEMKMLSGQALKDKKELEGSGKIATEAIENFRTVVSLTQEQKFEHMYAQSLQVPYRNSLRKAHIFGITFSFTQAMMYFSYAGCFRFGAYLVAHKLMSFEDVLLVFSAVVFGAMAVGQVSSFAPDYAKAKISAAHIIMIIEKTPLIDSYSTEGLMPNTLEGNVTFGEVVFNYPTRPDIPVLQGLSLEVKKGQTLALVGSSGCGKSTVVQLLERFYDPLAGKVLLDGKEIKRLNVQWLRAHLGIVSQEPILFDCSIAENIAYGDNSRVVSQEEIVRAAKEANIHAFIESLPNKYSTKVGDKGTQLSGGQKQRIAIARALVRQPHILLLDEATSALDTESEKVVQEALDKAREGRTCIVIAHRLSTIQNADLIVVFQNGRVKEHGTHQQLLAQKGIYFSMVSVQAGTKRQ
Sequence of recombinant human CYP3A4 (P08684 whole entry): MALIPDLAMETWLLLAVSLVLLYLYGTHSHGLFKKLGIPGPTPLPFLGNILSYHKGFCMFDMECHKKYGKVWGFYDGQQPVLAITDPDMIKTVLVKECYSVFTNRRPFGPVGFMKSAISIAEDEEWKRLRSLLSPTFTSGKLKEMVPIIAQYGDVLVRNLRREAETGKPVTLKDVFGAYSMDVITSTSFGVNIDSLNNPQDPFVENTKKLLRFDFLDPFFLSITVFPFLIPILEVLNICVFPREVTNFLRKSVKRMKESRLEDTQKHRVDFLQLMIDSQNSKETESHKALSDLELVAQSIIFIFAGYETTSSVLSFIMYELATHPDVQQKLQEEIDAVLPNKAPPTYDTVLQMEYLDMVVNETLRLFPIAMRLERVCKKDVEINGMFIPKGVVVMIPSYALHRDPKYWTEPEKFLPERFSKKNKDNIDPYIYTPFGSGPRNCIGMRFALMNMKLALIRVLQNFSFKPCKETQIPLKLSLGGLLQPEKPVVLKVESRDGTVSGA

## CCCSc1nc(N[C@@H]2C[C@H]2c2ccc(F)c(F)c2)c2nnn([C@@H]3C[C@H](OCCO)[C@@H](O)[C@H]3O)c2n1 [ticagrelor]
[1]
  increase of the AUC of rivaroxaban: two folds

## CCN(CC)CCNC(=O)c1c(C)[nH]c(/C=C2\C(=O)Nc3ccc(F)cc32)c1C [Sunitinib]
[2]
  Cmax: 63 to 69.5 nM
[3]
  AUC increase (%): 2%
[3]; listed as sunitinib
  AUC increase (%): not to cause a significant change
[4]
  IC50 at 60 min: 84.2 ± 7.34 µM

## CCOC(=O)[C@H](CCc1ccccc1)N[C@@H](C)C(=O)N1CCC[C@H]1C(=O)O [enalapril]
[5]
  increase of the AUC value of rivaroxaban: 20%
  increase of the Cmax value of rivaroxaban: 20%

## O=C(NC[C@H]1CN(c2ccc(N3CCOCC3=O)cc2)C(=O)O1)c1ccc(Cl)s1 [Rivaroxaban]
[6]; [15]
  AUC(0-t): 1550 ± 268 ng·h/mL
  Cmax: 130 ± 22.7 ng/mL
  Tmax: 4 h
[7]
  dose eliminated via hydrolysis of the amide bonds: approximately 14%
[8]; MDR1-MDCK cells
  Net flux ratio max, P-gp: 10.300 fold
[8]; human, MDCK, pH 7.4
  Km at 2 h: 8.42 µM
[8]; substrate identification
  net flux ratio, transportation mediated by P-gp: more than 2 folds
[9]; input of static model
  fraction of rivaroxaban metabolized by CYP3A4: 0.025
[9]; read-out: Km of rivaroxaban metabolism, CYP3A4
  Km: 47 µM
[10]; input of static model
  fraction of rivaroxaban metabolized by CYP2J2: 0.95
[10]
  catalytic efficiency of CYP2J2 relative to CYP3A4: approximately 39 fold
[10]; read-out: Km of rivaroxaban metabolism, CYP2J2
  Km: 19.4 µM
[11]
  Km: 22.8 µM
[12]; n = 5
  AUC(0-t): 4650 ± 446 ng·h/mL
  Cmax: 3940 ± 780 ng/mL
[12]; n = 5, read-out: CL of rivaroxaban (converted)
  clearance: 1.38 mL/min/kg
[12]; n = 5, read-out: t1/2 of rivaroxaban (converted)
  half-life: 2.44 ± 0.757 h
[13]; ABCG2-MDCK cells
  Net flux ratio max, BCRP: 4.868 fold
[13]; human, pH 7.4
  Km at 2 h: 3.46 µM
[13]; substrate identification
  net flux ratio, transportation mediated by BCRP: more than 2 folds

## Cc1ccc(NC(=O)c2ccc(CN3CCN(C)CC3)cc2)cc1Nc1nccc(-c2cccnc2)n1 [Imatinib]
[8]; human, pH 7.4
  inhibition at 2 h: ~20%
[2]
  Cmax: 4170 to 9280 nM
[14]
  intracellular fluorescence intensity of rhodamine 123 (fluorescence imaging): significantly increased
[4]
  IC50 at 60 min: 1.7 ± 0.119 µM
[13]; human, pH 7.4
  inhibition at 2 h, 5 µM: > 50%

## COc1cc2ncnc(Nc3ccc(F)c(Cl)c3)c2cc1OCCCN1CCOCC1 [Gefitinib]
[6]; p.o.
  effect on rivaroxaban exposure / pharmacokinetics in vivo: almost did not affect; also recorded: did not show obvious changes
[2]
  Cmax: 190 to 356 nM
[14]
  intracellular fluorescence intensity of rhodamine 123 (fluorescence imaging): slight increase
[3]
  AUC increase (%): 6–11%
[3]; listed as gefitinib
  AUC increase (%): not to cause a significant change

Source: publication PMC9441481, “Risk assessment and molecular mechanism study of drug-drug interactions between rivaroxaban and tyrosine kinase inhibitors mediated by CYP2J2/3A4 and BCRP/P-gp” (Frontiers in Pharmacology, 2022)
